Assay results: patent US12371454B2, “Cyclic peptide compound having Kras inhibitory action” (priority 2019, dated 2025)
Starred links: 1 amine or outer side, 2 acyl side, 3 side chain; linkers in the order of their positions; H or OH if unused. Positions of bridges follow the written chain, without caps; N, C: chain ends. Non-standard residues stand in square brackets, D forms with d. Residues, ends and D or L forms follow the SMILES beside them. *: point of attachment. hPhe(3-Cl-4-CF3) = N[C@@H](CCc1ccc(C(F)(F)F)c(Cl)c1)C(=O)O; X88 = O=C([C@H](CCc1ccc(OC(F)(F)F)c(Cl)c1)N[*:1])[*:2]; X58 = O=C([C@H](CCc1ccc(OC(F)(F)F)c(F)c1)N[*:1])[*:2]; X60 = CC(C)Oc1cc(CC[C@H](N[*:1])C(=O)[*:2])cc(Cl)c1Cl; X57 = N#Cc1cc(CC[C@H](N[*:1])C(=O)[*:2])ccc1C(F)(F)F; X75 = O=C([C@H](CCc1ccc2c(c1)OC(F)(F)O2)N[*:1])[*:2]; X74 = O=C([C@H](CCc1cc(Cl)c(Cl)c(Cl)c1)N[*:1])[*:2]; X68 = O=C([C@H](CCc1ccc(OC(F)F)c(F)c1)N[*:1])[*:2]; X34 = O=C([C@H](CCc1ccc(C(F)(F)F)nc1)N[*:1])[*:2]; X37 = O=C([C@H](CCc1ccc(C(F)F)c(F)c1)N[*:1])[*:2]; X16 = Cn1ccc2ccc(CC[C@H](N[*:1])C(=O)[*:2])cc21; X44 = O=C([C@H](CCc1ccc2ncccc2c1)N[*:1])[*:2]; X86 = O=C([C@H](CCc1ccc2occc2c1)N[*:1])[*:2]; X9 = O=C([C@H](CCc1ccc2cccnc2c1)N[*:1])[*:2]; X72 = COc1ccc(CC[C@H](N[*:1])C(=O)[*:2])cn1; NMeGly(cPent) = CN[C@H](C(=O)O)C1CCCC1; NMeCha = CN[C@@H](CC1CCCCC1)C(=O)O; NMeChg = CN[C@H](C(=O)O)C1CCCCC1; X61 = O=C(CN(CC1COC1)[*:1])[*:2]; NMeD = CN[C@@H](CC(=O)O)C(=O)O; NMeL = CN[C@@H](CC(C)C)C(=O)O; NMeV = CN[C@H](C(=O)O)C(C)C; NMeS = CN[C@@H](CO)C(=O)O; Morpholide = C1CN(*)CCO1; NMeA = CN[C@@H](C)C(=O)O; Piperidide = C1CCN(*)CC1; Ac5c = NC1(C(=O)O)CCCC1; Aze = O=C(O)[C@@H]1CCN1; Sar = CNCC(=O)O; Propyl = CCC*

Test system: Human pancreatic cancer cell line AsPC-1
Assay: Measurement of AsPC-1 cell growth inhibition (AsPC-1 CGI)
Type: cell-based
Conditions: 96 h
In short: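 AsPC-1 cells in 15% FBS RPMI-1640 were exposed to test compound for 96 hours at 37° C, with CellTiter-Glo as endpoint.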

| Compound | IC50 [µM] |
| --- | --- |
| CCCOC[C@H]1C(=O)N(C)CC(=O)N[C@@H](CCc2ccc(C(F)(F)F)c(Cl)c2)C(=O)N2CCC[C@H]2C(=O)NC2(CCCC2)C(=O)N(C)[C@@H](C2CCCCC2)C(=O)N(C)[C@H](C(=O)N2CCOCC2)CC(=O)N(C)[C@@H](CC(C)C)C(=O)N[C@@H]([C@@H](C)CC)C(=O)N(C)CC(=O)N(C)CC(=O)N1C [Compound 1966] ([NMeL]I[Sar][Sar][NMeS](Propyl)[Sar][hPhe(3-Cl-4-CF3)]P[Ac5c][NMeChg][NMeD]-Morpholide; lactam N-11) | 0.05 to 0.1 |
| CC[C@H](C)[C@@H]1NC(=O)[C@H](CC(C)C)N(C)C(=O)C[C@@H](C(=O)N2CCCCC2)N(C)C(=O)[C@H](C2CCCCC2)N(C)C(=O)C2(CCCC2)NC(=O)CN(CC2COC2)C(=O)[C@H](CCc2ccc(C(F)(F)F)c(Cl)c2)NC(=O)CN(C)C(=O)[C@H](CC2CCCCC2)N(C)C(=O)CN(C)C(=O)CN(C)C1=O [Compound 2031] ([NMeL]I[Sar][Sar][NMeCha][Sar][hPhe(3-Cl-4-CF3)][X61][Ac5c][NMeChg][NMeD]-Piperidide; lactam N-11) | 0.1 to 0.5 |
| CC[C@H](C)[C@@H]1NC(=O)[C@H](CC(C)C)N(C)C(=O)C[C@@H](C(=O)N2CCCCC2)N(C)C(=O)[C@H](C2CCCC2)N(C)C(=O)C2(CCCC2)NC(=O)[C@@H]2CCCN2C(=O)[C@H](CCc2ccc(OC(F)(F)F)c(Cl)c2)NC(=O)CN(C)C(=O)[C@H](CC2CCCCC2)N(C)C(=O)[C@@H]2CCN2C(=O)[C@H](C)N(C)C1=O [Compound 2057] ([NMeL]I[NMeA][Aze][NMeCha][Sar][X88]P[Ac5c][NMeGly(cPent)][NMeD]-Piperidide; lactam N-11) | 0.05 to 0.1 |
| CC[C@H](C)[C@@H]1NC(=O)[C@H](C)N(C)C(=O)C[C@@H](C(=O)N2CCCCC2)N(C)C(=O)[C@H](C2CCCCC2)N(C)C(=O)C2(CCCC2)NC(=O)[C@@H]2CCCN2C(=O)[C@H](CCc2cc(Cl)c(Cl)c(Cl)c2)NC(=O)CN(C)C(=O)[C@H](CC2CCCCC2)N(C)C(=O)CN(C)C(=O)CN(C)C1=O [Compound 2059, (3S,9S,18S,21S,25S,28S,34S)-28-cyclohexyl-9-(cyclohexylmethyl)-7,10,13,16,21,22,26,29-octamethyl-18-[(1S)-1-methylpropyl]-25-(piperidine-1-carbonyl)-3-[2-(3,4,5-trichlorophenyl)ethyl]spiro[1,4,7,10,13,16,19,22,26,29,32-undecazabicyclo[32.3.0]heptatriacontane-31,1′-cyclopentane]-2,5,8,11,14,17,20,23,27,30,33-undecone] ([NMeA]I[Sar][Sar][NMeCha][Sar][X74]P[Ac5c][NMeChg][NMeD]-Piperidide; lactam N-11) | 0.1 to 0.5 |
| CC[C@H](C)[C@@H]1NC(=O)[C@H](C)N(C)C(=O)C[C@@H](C(=O)N2CCCCC2)N(C)C(=O)[C@H](C2CCCCC2)N(C)C(=O)C2(CCCC2)NC(=O)[C@@H]2CCCN2C(=O)[C@H](CCc2cc(Cl)c(Cl)c(OC(C)C)c2)NC(=O)CN(C)C(=O)[C@H](CC2CCCCC2)N(C)C(=O)CN(C)C(=O)CN(C)C1=O [Compound 2062] ([NMeA]I[Sar][Sar][NMeCha][Sar][X60]P[Ac5c][NMeChg][NMeD]-Piperidide; lactam N-11; C-terminus assumed) | > 0.5 |
| CC[C@H](C)[C@@H]1NC(=O)[C@H](CC(C)C)N(C)C(=O)C[C@@H](C(=O)N2CCCCC2)N(C)C(=O)[C@H](C2CCCC2)N(C)C(=O)C2(CCCC2)NC(=O)[C@@H]2CCCN2C(=O)[C@H](CCc2ccc3occc3c2)NC(=O)CN(C)C(=O)[C@H](CC2CCCCC2)N(C)C(=O)[C@@H]2CCN2C(=O)[C@H](C)N(C)C1=O [Compound 2063] ([NMeL]I[NMeA][Aze][NMeCha][Sar][X86]P[Ac5c][NMeGly(cPent)][NMeD]-Piperidide; lactam N-11) | 0.05 to 0.1 |
| CC[C@H](C)[C@@H]1NC(=O)[C@H](CC(C)C)N(C)C(=O)C[C@@H](C(=O)N2CCCCC2)N(C)C(=O)[C@H](C2CCCC2)N(C)C(=O)C2(CCCC2)NC(=O)[C@@H]2CCCN2C(=O)[C@H](CCc2ccc3ccn(C)c3c2)NC(=O)CN(C)C(=O)[C@H](CC2CCCCC2)N(C)C(=O)[C@@H]2CCN2C(=O)[C@H](C)N(C)C1=O [Compound 2065] ([NMeL]I[NMeA][Aze][NMeCha][Sar][X16]P[Ac5c][NMeGly(cPent)][NMeD]-Piperidide; lactam N-11) | 0.1 to 0.5 |
| CC[C@H](C)[C@@H]1NC(=O)[C@H](CC(C)C)N(C)C(=O)C[C@@H](C(=O)N2CCCCC2)N(C)C(=O)[C@H](C2CCCC2)N(C)C(=O)C2(CCCC2)NC(=O)[C@@H]2CCCN2C(=O)[C@H](CCc2ccc(OC(F)(F)F)c(F)c2)NC(=O)CN(C)C(=O)[C@H](CC2CCCCC2)N(C)C(=O)[C@@H]2CCN2C(=O)[C@H](C)N(C)C1=O [Compound 2067] ([NMeL]I[NMeA][Aze][NMeCha][Sar][X58]P[Ac5c][NMeGly(cPent)][NMeD]-Piperidide; lactam N-11) | 0.02 to 0.05 |
| CC[C@H](C)[C@@H]1NC(=O)[C@H](CC(C)C)N(C)C(=O)C[C@@H](C(=O)N2CCCCC2)N(C)C(=O)[C@H](C2CCCC2)N(C)C(=O)C2(CCCC2)NC(=O)[C@@H]2CCCN2C(=O)[C@H](CCc2ccc3ncccc3c2)NC(=O)CN(C)C(=O)[C@H](CC2CCCCC2)N(C)C(=O)[C@@H]2CCN2C(=O)[C@H](C)N(C)C1=O [Compound 2070] ([NMeL]I[NMeA][Aze][NMeCha][Sar][X44]P[Ac5c][NMeGly(cPent)][NMeD]-Piperidide; lactam N-11) | > 0.5 |
| CC[C@H](C)[C@@H]1NC(=O)[C@H](CC(C)C)N(C)C(=O)C[C@@H](C(=O)N2CCCCC2)N(C)C(=O)[C@H](C2CCCC2)N(C)C(=O)C2(CCCC2)NC(=O)[C@@H]2CCCN2C(=O)[C@H](CCc2ccc(C(F)(F)F)c(C#N)c2)NC(=O)CN(C)C(=O)[C@H](CC2CCCCC2)N(C)C(=O)[C@@H]2CCN2C(=O)[C@H](C)N(C)C1=O [Compound 2072] ([NMeL]I[NMeA][Aze][NMeCha][Sar][X57]P[Ac5c][NMeGly(cPent)][NMeD]-Piperidide; lactam N-11) | 0.02 to 0.05 |
| CC[C@H](C)[C@@H]1NC(=O)[C@H](CC(C)C)N(C)C(=O)C[C@@H](C(=O)N2CCCCC2)N(C)C(=O)[C@H](C2CCCC2)N(C)C(=O)C2(CCCC2)NC(=O)[C@@H]2CCCN2C(=O)[C@H](CCc2ccc3c(c2)OC(F)(F)O3)NC(=O)CN(C)C(=O)[C@H](CC2CCCCC2)N(C)C(=O)[C@@H]2CCN2C(=O)[C@H](C)N(C)C1=O [Compound 2074] ([NMeL]I[NMeA][Aze][NMeCha][Sar][X75]P[Ac5c][NMeGly(cPent)][NMeD]-Piperidide; lactam N-11) | 0.05 to 0.1 |
| CC[C@H](C)[C@@H]1NC(=O)[C@H](CC(C)C)N(C)C(=O)C[C@@H](C(=O)N2CCCCC2)N(C)C(=O)[C@H](C2CCCC2)N(C)C(=O)C2(CCCC2)NC(=O)[C@@H]2CCCN2C(=O)[C@H](CCc2ccc(OC(F)F)c(F)c2)NC(=O)CN(C)C(=O)[C@H](CC2CCCCC2)N(C)C(=O)[C@@H]2CCN2C(=O)[C@H](C)N(C)C1=O [Compound 2076] ([NMeL]I[NMeA][Aze][NMeCha][Sar][X68]P[Ac5c][NMeGly(cPent)][NMeD]-Piperidide; lactam N-11) | 0.05 to 0.1 |
| CC[C@H](C)[C@@H]1NC(=O)[C@H](CC(C)C)N(C)C(=O)C[C@@H](C(=O)N2CCCCC2)N(C)C(=O)[C@H](C2CCCC2)N(C)C(=O)C2(CCCC2)NC(=O)[C@@H]2CCCN2C(=O)[C@H](CCc2ccc3cccnc3c2)NC(=O)CN(C)C(=O)[C@H](CC2CCCCC2)N(C)C(=O)[C@@H]2CCN2C(=O)[C@H](C)N(C)C1=O [Compound 2077] ([NMeL]I[NMeA][Aze][NMeCha][Sar][X9]P[Ac5c][NMeGly(cPent)][NMeD]-Piperidide; lactam N-11) | 0.1 to 0.5 |
| CC[C@H](C)[C@@H]1NC(=O)[C@H](CC(C)C)N(C)C(=O)C[C@@H](C(=O)N2CCCCC2)N(C)C(=O)[C@H](C2CCCC2)N(C)C(=O)C2(CCCC2)NC(=O)[C@@H]2CCCN2C(=O)[C@H](CCc2ccc(C(F)(F)F)nc2)NC(=O)CN(C)C(=O)[C@H](CC2CCCCC2)N(C)C(=O)[C@@H]2CCN2C(=O)[C@H](C)N(C)C1=O [Compound 2078] ([NMeL]I[NMeA][Aze][NMeCha][Sar][X34]P[Ac5c][NMeGly(cPent)][NMeD]-Piperidide; lactam N-11) | 0.1 to 0.5 |
| CC[C@H](C)[C@@H]1NC(=O)[C@H](C)N(C)C(=O)C[C@@H](C(=O)N2CCCCC2)N(C)C(=O)[C@H](C(C)C)N(C)C(=O)C2(CCCC2)NC(=O)[C@@H]2CCCN2C(=O)[C@H](CCc2cc(Cl)c(Cl)c(OC(C)C)c2)NC(=O)CN(C)C(=O)[C@H](CC2CCCCC2)N(C)C(=O)CN(C)C(=O)CN(C)C1=O [Compound 2079] ([NMeA]I[Sar][Sar][NMeCha][Sar][X60]P[Ac5c][NMeV][NMeD]-Piperidide; lactam N-11; C-terminus assumed) | > 0.5 |
| CC[C@H](C)[C@@H]1NC(=O)[C@H](CC(C)C)N(C)C(=O)C[C@@H](C(=O)N2CCCCC2)N(C)C(=O)[C@H](C2CCCC2)N(C)C(=O)C2(CCCC2)NC(=O)[C@@H]2CCCN2C(=O)[C@H](CCc2ccc(OC)nc2)NC(=O)CN(C)C(=O)[C@H](CC2CCCCC2)N(C)C(=O)[C@@H]2CCN2C(=O)[C@H](C)N(C)C1=O [Compound 2084] ([NMeL]I[NMeA][Aze][NMeCha][Sar][X72]P[Ac5c][NMeGly(cPent)][NMeD]-Piperidide; lactam N-11) | 0.1 to 0.5 |
| CC[C@H](C)[C@@H]1NC(=O)[C@H](CC(C)C)N(C)C(=O)C[C@@H](C(=O)N2CCCCC2)N(C)C(=O)[C@H](C2CCCC2)N(C)C(=O)C2(CCCC2)NC(=O)[C@@H]2CCCN2C(=O)[C@H](CCc2ccc(C(F)F)c(F)c2)NC(=O)CN(C)C(=O)[C@H](CC2CCCCC2)N(C)C(=O)[C@@H]2CCN2C(=O)[C@H](C)N(C)C1=O [Compound 2085, (5S,8S,11S,15S,18S,23aS,29S,35S,37aS)-8-((S)-sec-butyl)-35-(cyclohexylmethyl)-18-cyclopentyl-29-(4-(difluoromethyl)-3-fluorophenethyl)-11-isobutyl-5,6,12,16,19,33,36-heptamethyl-15-(piperidin-1-carbonyl)docosahydro-2H,4H-spiro[azeto[2,1-u]pyrrolo[2,1-i][1,4,7,10,13,16,19,22,25,28,31]undecazacyclotetratriacontyne-21,1′-cyclopentane]-4,7,10,13,17,20,23,28,31,34,37(14H,22H)-undecone] ([NMeL]I[NMeA][Aze][NMeCha][Sar][X37]P[Ac5c][NMeGly(cPent)][NMeD]-Piperidide; lactam N-11) | 0.1 to 0.5 |
